In patent US20100179122A1 (priority 2005, published 2010) one finds IC50 and IC95 data, which are given here for 29 compounds.

Test [1] concerns the target T1, mutant HIV reverse transcriptase (K103N mutation) (Human immunodeficiency virus type 1 group M subtype B, UniProt P04585, K690N).
T1 construct: mutations that occur in the reverse transcriptase segment of the pol gene; made in house
The experiment in a line: Analogous RT inhibition assay, K103N mutant. The format is biochemical. Here is the method: (§1) 100 μL reaction mixtures were initiated with a combination of primer-template substrate (10 nM final concentration) and dNTPs (0.6 μM dNTPs, 0.75 μM [^3H]-dGTP). The heterodimeric nucleic acid substrate was generated by annealing the DNA primer pD500 (described in Shaw-Reid et al., J. Biol. Chem., 278: 2777-2780; obtained from Integrated DNA Technologies) to t500, a 500 nucleotide RNA template created by in vitro transcription (see Shaw-Reid et al., J. Biol. Chem., 278: 2777-2780). After 1 hour incubation at 37° C., reactions were quenched by 10 μl, streptavidin scintillation proximity assay beads (10 mg/mL, from Amersham Biosciences) in 0.5 M EDTA, pH 8. Microtiter plates were incubated an additional 10 minutes at 37° C. prior to quantification via Topcount (Packard).
(§2) Analogous assays were conducted substituting mutant HIV strains to determine the […] inhibition of compounds of the present invention against mutant HIV reverse transcriptase. In one strain the reverse transcriptase has the Y181C mutation and in the other strain the reverse transcriptase has the K103N mutation. The mutations were generated with the […] site-directed mutagenesis kit (Stratagene). […] The compounds set forth in the other Examples were not tested in the Y181C assay. […] The compounds set forth in the other Examples were not tested in the K103N assay.

Test [2] relates to acute HIV infection of T-lymphoid cells. The experiment in a line: Assay for inhibition of HIV replication (spread assay). Type of test: cell-based. Particulars: read-out: IC95, spread assay. The method, then: An assay for the inhibition of acute HIV infection of T-lymphoid cells (alternatively referred to herein as the “spread assay”) was conducted in accordance with Vacca, J. P. et al., Proc. Natl. Acad. Sci. USA 1994, 91: 4096. […] The compounds set forth in the other Examples were not tested in the spread assay.

Test [3] has as its target T2, mutant HIV reverse transcriptase (Y181C mutation) (Human immunodeficiency virus type 1 group M subtype B, UniProt P04585, Y768C).
T2 construct: mutations that occur in the reverse transcriptase segment of the pol gene; made in house
The experiment in a line: Analogous RT inhibition assay, Y181C mutant. The format is biochemical. Here is the method:
as §1, §2

The mark [4] stands for this setting: Human immunodeficiency virus 1, inhibition of acute HIV infection of T-lymphoid cells.
The mark [5] stands for this setting: reverse transcriptase with K103N mutation, tested up to 20 micromolar, read-out: IC50, K103N mutant assay.
The mark [6] stands for this setting: reverse transcriptase with Y181C mutation, tested up to 20 micromolar, read-out: IC50, Y181C mutant assay.

Broadly, the IC50 is the midpoint of a concentration-inhibition curve. In general, IC95 refers to the concentration at which the effect reaches the 95% level.

Like-named read-outs stand apart in the source and are kept apart here.

As to `O=C(Nc1ccccc1F)Nc1[nH]c2ccc(Cl)cc2c1S(=O)(=O)c1ccccc1` [Example 2, N-[5-chloro-3-(phenylsulfonyl)-1H-indol-2-yl]-N-(2-fluorophenyl)urea], the IC50 in test [1] was under 1000 nM. The IC95 in test [2] (setting [4]) is under 1000 nM.
Consider `O=C(Nc1[nH]c2ccc(Cl)cc2c1S(=O)(=O)c1ccccc1)C1CC1` [Example 3, N-[5-Chloro-3-(phenylsulfonyl)-1H-indol-2-yl]cyclopropanecarboxamide], for which the IC50 in test [3] was 1000 to 20000 nM; in test [1] it was under 1000 nM. For the same compound, in test [2] (setting [4]), the IC95 was under 1000 nM.
For the compound `CC(=O)OCC(=O)Nc1[nH]c2ccc(Cl)cc2c1S(=O)(=O)c1ccccc1` [Example 5, 2-{[5-chloro-3-(phenylsulfonyl)-1H-indol-2-yl]amino}-2-oxoethyl acetate], the IC50 in test [3] and in test [1] was under 1000 nM each time. For the same compound, the IC95 in test [2] (setting [4]) is under 1000 nM.
On to `O=C(CCOc1ccccc1)Nc1[nH]c2ccc(Cl)cc2c1S(=O)(=O)c1ccccc1` [Example 8, N-[5-chloro-3-(phenylsulfonyl)-1H-indol-2-yl]-3-phenoxypropanamide], for which the IC50 in test [3] and in test [1] was over 20000 nM throughout. Also, the 95% effect concentration (IC95) in test [2] (setting [4]) is under 1000 nM.
On to `O=C(Nc1[nH]c2ccc(Cl)cc2c1S(=O)(=O)c1ccccc1)C1Cc2ccccc2O1` (stereo not shown) [Example 10, N-[5-chloro-3-(phenylsulfonyl)-1H-indol-2-yl]-2,3-dihydro-1-benzofuran-2-carboxamide], for which the 50% inhibitory concentration (IC50) in test [3] and in test [1] was under 1000 nM throughout. Moreover, the 95% effect concentration (IC95) in test [2] (setting [4]) was under 1000 nM.
`O=C(Nc1[nH]c2ccc(Cl)cc2c1S(=O)(=O)c1ccccc1)C1COc2ccccc2O1` (stereo not shown) [Example 11, N-[5-chloro-3-(phenylsulfonyl)-1H-indol-2-yl]-2,3-dihydro-1,4-benzodioxine-2-carboxamide]: the IC50 in test [3] and in test [1] was under 1000 nM throughout. Besides, the IC95 in test [2] (setting [4]) is under 1000 nM.
Take `CC(C)C(=O)Nc1[nH]c2ccc(Cl)cc2c1S(=O)(=O)c1ccccc1` [Example 15, N-[5-chloro-3-(phenylsulfonyl)-1H-indol-2-yl]-2-methylpropanamide]: the IC50 in test [3] and in test [1] was 1000 to 20000 nM each time. Besides, the IC95 in test [2] (setting [4]) was under 1000 nM.
Take `CCNCC(=O)Nc1[nH]c2ccc(Cl)cc2c1S(=O)(=O)c1ccccc1` [Example 21, N^1-[5-chloro-3-(phenylsulfonyl)-1H-indol-2-yl]-N^2-ethylglycinamide]: the IC50 in test [3] and in test [1] was under 1000 nM in each case. Besides, in test [2] (setting [4]), the IC95 is under 1000 nM.
As for `CCC(C)C(=O)Nc1[nH]c2ccc(Cl)cc2c1S(=O)(=O)c1ccccc1` (stereo not shown) [Example 26, N-[5-chloro-3-(phenylsulfonyl)-1H-indol-2-yl]-2-methylbutanamide], the figures for the IC50 in test [3] and in test [1] were under 1000 nM and 1000 to 20000 nM, respectively. The concentration for an effect of 95% (IC95) in test [2] (setting [4]) was under 1000 nM.
`O=C(Nc1ccc(F)cc1)Nc1[nH]c2ccc(Cl)cc2c1S(=O)(=O)c1ccccc1` [Example 31, N-[5-chloro-3-(phenylsulfonyl)-1H-indol-2-yl]-N′-(4-fluorophenyl)urea]: the IC50 in test [3] and in test [1] was over 20000 nM each time. The IC95 in test [2] (setting [4]) was under 1000 nM.
Regarding `O=C(CN1CCC(c2ccncc2)CC1)Nc1[nH]c2ccc(Cl)cc2c1S(=O)(=O)c1ccccc1` [Example 37, N-[5-chloro-3-(phenylsulfonyl)-1H-indol-2-yl]-2-(4-pyridin-4-ylpiperidin-1-yl)acetamide], the IC50 in test [3] and in test [1] was over 20000 nM each time.
For `O=C(CNCc1cscn1)Nc1[nH]c2ccc(Cl)cc2c1S(=O)(=O)c1ccccc1` [Example 38, N^1-[5-chloro-3-(phenylsulfonyl)-1H-indol-2-yl]-N^2-(1,3-thiazol-4-ylmethyl)glycinamide], the IC50 in test [3] and in test [1] was under 1000 nM in each case.
In the case of `O=C(NCc1cccc(F)c1)Nc1[nH]c2ccc(Br)cc2c1S(=O)(=O)N1CCCC1` [Example 70], the IC50 in test [1] (setting [5]) was under 1000 nM.
As for `O=C(Nc1ccccc1)Nc1[nH]c2ccc(Br)cc2c1S(=O)(=O)N1CCCC1` [Example 73, N-[5-bromo-3-(pyrrolidin-1-ylsulfonyl)-1H-indo1-2-yl]-N′-phenylurea], in test [1] (setting [5]), the IC50 was under 1000 nM. In addition, the IC95 in test [2] (setting [4]) is under 1000 nM.
Take `CC(C)NC(=O)Nc1[nH]c2ccc(Br)cc2c1S(=O)(=O)N1CCCC1` [Example 74, N-[5-bromo-3-(pyrrolidin-1-ylsulfonyl)-1H-indol-2-yl]-N′-isopropylurea]: in test [1] (setting [5]), the IC50 is under 1000 nM.
With `O=C(Nc1[nH]c2ccc(Br)cc2c1S(=O)(=O)N1CCCC1)NC1CCCC1` [Example 78, N-[5-bromo-3-(pyrrolidin-1-ylsulfonyl)-1H-indol-2-yl]-N′-cyclopentylurea], the IC50 in test [3] was over 20000 nM; in test [1] (setting [5]) it was under 1000 nM.
The matching figures for `O=C(NCc1ccccc1O)Nc1[nH]c2ccc(Br)cc2c1S(=O)(=O)N1CCCC1` [Example 79, N-[5-bromo-3-(pyrrolidin-1-ylsulfonyl)-1H-indol-2-yl]-N′-(2-hydroxybenzyl)urea]: over 20000 nM and under 1000 nM.
As to `O=C(NCc1ccccn1)Nc1[nH]c2ccc(Br)cc2c1S(=O)(=O)N1CCCC1` [Example 80, N-[5-bromo-3-(pyrrolidin-1-ylsulfonyl)-1H-indol-2-yl]-N′-(pyridin-2-ylmethyl)urea], the IC50 is 1000 to 20000 nM in test [3] and under 1000 nM in test [1] (setting [5]).
The matching figures for `O=C(NCc1cccnc1)Nc1[nH]c2ccc(Br)cc2c1S(=O)(=O)N1CCCC1` [Example 81, N-[5-bromo-3-(pyrrolidin-1-ylsulfonyl)-1H-indol-2-yl]-N′-(pyridin-3-ylmethyl)urea]: 1000 to 20000 nM and under 1000 nM.
Taken in the same sequence, the figures for `O=C(NCc1cncs1)Nc1[nH]c2ccc(Br)cc2c1S(=O)(=O)N1CCCC1` [Example 83, N-[5-bromo-3-(pyrrolidin-1-ylsulfonyl)-1H-indol-2-yl]-N′-(1,3-thiazol-5-ylmethyl)urea] were 1000 to 20000 nM and under 1000 nM.
`O=C(Nc1[nH]c2ccc(Br)cc2c1S(=O)(=O)N1CCCC1)N1CCCC1` [Example 84, N-[5-bromo-3-(pyrrolidin-1-ylsulfonyl)-1H-indol-2-yl]pyrrolidine-1-carboxamide]: the half-maximal inhibitory concentration (IC50) in test [3] (setting [6]) is over 20000 nM; in test [1] (setting [5]) it was under 1000 nM.
For `O=C(NCCc1ccccc1)Nc1[nH]c2ccc(Br)cc2c1S(=O)(=O)N1CCCC1` [Example 85, N-[5-bromo-3-(pyrrolidin-1-ylsulfonyl)-1H-indol-2-yl]-N′-(2-phenylethyl)urea], the IC50 is over 20000 nM in test [3] (setting [6]) and under 1000 nM in test [1] (setting [5]).
Taken in the same sequence, the figures for `NC(=O)C1CCCN(C(=O)Nc2[nH]c3ccc(Br)cc3c2S(=O)(=O)N2CCCC2)C1` (stereo not shown) [Example 87, N^1-[5-bromo-3-(pyrrolidin-1-ylsulfonyl)-1H-indol-2-yl]piperidine-1,3-dicarboxamide] were over 20000 nM and under 1000 nM.
Take `O=C(NCCc1ccccn1)Nc1[nH]c2ccc(Br)cc2c1S(=O)(=O)N1CCCC1` [Example 88, N-[5-bromo-3-(pyrrolidin-1-ylsulfonyl)-1H-indol-2-yl]-N′-(2-pyridin-2-ylethyl)urea]: the values for the IC50 in test [3] (setting [6]) and in test [1] were over 20000 nM and 1000 to 20000 nM, respectively.
Taken in the same sequence, the figures for `CN1CCN(C(=O)Nc2[nH]c3ccc(Br)cc3c2S(=O)(=O)N2CCCC2)CC1` [Example 91, N-[5-bromo-3-(pyrrolidin-1-ylsulfonyl)-1H-indol-2-yl]-4-methylpiperazine-1-carboxamide] were over 20000 nM and 1000 to 20000 nM.
Taken in the same sequence, the figures for `CC(C)(C)CCNC(=O)Nc1[nH]c2ccc(Br)cc2c1S(=O)(=O)N1CCCC1` [Example 92, N-[5-bromo-3-(pyrrolidin-1-ylsulfonyl)-1H-indol-2-yl]-N′-(3,3-dimethylbutyl)urea] were over 20000 nM and over 20000 nM.
As for `O=C(NCCNc1ccccc1)Nc1[nH]c2ccc(Br)cc2c1S(=O)(=O)N1CCCC1` [Example 93, N-(2-anilinoethyl)-N′-[5-bromo-3-(pyrrolidin-1-ylsulfonyl)-1H-indol-2-yl]urea], the results for the IC50 in test [3] (setting [6]) and in test [1] were over 20000 nM and 1000 to 20000 nM, respectively.
As for `CN(C)CCCNC(=O)Nc1[nH]c2ccc(Br)cc2c1S(=O)(=O)N1CCCC1` [Example 94, N-[5-bromo-3-(pyrrolidin-1-ylsulfonyl)-1H-indol-2-yl]-N′-[3-(dimethylamino)propyl]urea], the values for the IC50 in test [3] and in test [1] were 1000 to 20000 nM and under 1000 nM, respectively.
`O=C(Nc1[nH]c2ccc(Br)cc2c1S(=O)(=O)N1CCCC1)N1CCC1` [Example 96, N-[5-bromo-3-(pyrrolidin-1-ylsulfonyl)-1H-indol-2-yl]azetidine-1-carboxamide]: in test [2] (Human immunodeficiency virus 1, T-lymphoid), the IC95 was 1000 to 10000 nM.
